Holding throughout (format): in vivo, Rats (Slc: Wistar)
One experiment concerns IL-6. The experiment in a line: Hypercytokinemia: plasma IL-6 by ELISA after LPS administration. The note with it: rats, LPS 20 mg/kg i.v.; 1 or 3 mg/kg s.c.; six hours after LPS; FIG. 1; #p <0.1. As for the experimental part: Rats (Slc: Wistar, male, 10 weeks old, n=7) were anesthetized by halothane. Subsequently, LPS (E. coli, 055: B5) (20 mg/2 ml/kg) was administered to each rat through the femoral vein. Immediately after administration, compound A was subcutaneously administered to each rats at a dose of 1 or 3 mg/kg. Six hours after administration of LPS, blood was collected from the abdominal aorta in the presence of citric acid, and plasma IL-6 was measured by ELISA.
(In general: In an ELISA, binding on a coated surface is turned into a signal by an enzyme label.)

Experiment [1] concerns LPS intravenous administration shock model. Nature of the experiment: LPS intravenous administration shock model, mortality. The note with it: for Mortality in terms of percentage(%) / Mortality: rats, LPS 20 mg/kg i.v., 24 hours after LPS; for Mortality in terms of percentage(%): control 100%; for Mortality: dead/total. As for the experimental part: Rats (Slc: Wistar, male, 10 weeks old, n=15) were anesthetized by halothane. Subsequently, lipopolysaccharide (LPS) (E. coli, 055: B5) (20 mg/2 ml/kg) was administered to each rat through the femoral vein. Immediately after administration, (2S)-2-[4-([(3S)-1-acetimidoyl-3-pyrrolidinyl]oxy)phenyl]-3-(7-amidino-2-naphthyl)propionic acid hydrochloride pentahydrate (hereinafter referred to as “Compound A”) was subcutaneously administered to each rat at a dose of 0.3, 1, or 3 mg/kg. The mortality for the rats was observed 24 hours after the administration of LPS.

Experiment [2] has as its system liver function parameters (GOT, GPT, LDH, and T-BIL). Nature of the experiment: Liver disease: liver function parameters (GOT, GPT, LDH, T-BIL) after LPS administration. The note with it: six hours after LPS; for TBIL / GOT / GPT / LDH: rats, LPS 20 mg/kg i.v., Mean ± S.E. (n = 7); for TBIL: control 0.46 ± 0.15; for GOT: control 3404 ± 406; for GPT: control 3716 ± 496; for LDH: control 23847 ± 3225. As for the experimental part:
Rats (Slc: Wistar, male, 10 weeks old, n=7) were anesthetized by halothane. Subsequently, LPS (E. coli, 055: B5) (20 mg/2 ml/kg) was administered to each rat through the femoral vein. Immediately after administration, compound A was subcutaneously administered to each rat at a dose of 0.3, 1, or 3 mg/kg. Six hours after LPS administration, blood was collected from the abdominal aorta in the presence of citric acid, and the blood was collected to measurement of liver function parameters (GOT, GPT, LDH, and T-BIL).

For the compound `CC(=N)N1CC[C@H](Oc2ccc([C@H](Cc3ccc4ccc(C(=N)N)cc4c3)C(=O)O)cc2)C1.Cl.O.O.O.O.O` [Compound A, (2S)-2-[4-([(3S)-1-acetimidoyl-3-pyrrolidinyl]oxy)phenyl]-3-(7-amidino-2-naphthyl)propionic acid hydrochloride pentahydrate], the “Concentration of plasma IL-6 (in words)” value with IL-6 is “dose-dependently suppressed the increase in concentration of IL-6”. Moreover, the “Effect on mortality for rats (in words)” value in experiment [1] (0.3, 1, 3 mg/kg s.c., χ2 test p<0.001) was “dose-dependently decreases the mortality for rats”. Besides, in experiment [1] (0.3 mg/kg s.c.), the “Mortality in terms of percentage(%)” value came out at 80% and the Mortality is listed as 12/15. Besides, in experiment [1] (1 mg/kg s.c.), the “Mortality in terms of percentage(%)” value is on record as 40% and the Mortality is recorded as 6/15. Further, in experiment [1] (3 mg/kg s.c.), the “Mortality in terms of percentage(%)” value is 7% and the Mortality is reported as 1/15. In addition, the “Effect on liver function parameters (in words)” value in experiment [2] (0.3, 1, 3 mg/kg s.c.) is “dose-dependently suppressed the increase in each liver function parameter”. In experiment [2] (0.3 mg/kg s.c.), this compound returned a TBIL of 0.48 ± 0.22 mg/dL, a GOT of 1939 ± 442 IU/L, a GPT of 1986 ± 467 IU/L and an LDH of 11560 ± 2983 IU/L. Besides, in experiment [2] (1 mg/kg s.c.), the TBIL turned out to be 0.20 ± 0.10 mg/dL, the GOT stood at 1183 ± 281 IU/L, the GPT stood at 1216 ± 352 IU/L and the LDH came to 6297 ± 2291 IU/L. In experiment [2] (3 mg/kg s.c.), this compound yielded a TBIL of 0.10 ± 0.01 mg/dL, a GOT of 364 ± 42 IU/L, a GPT of 189 ± 22 IU/L and an LDH of 972 ± 186 IU/L.

These data come from patent US6596754B1, “Preventives/remedies for multiple organ failure” (Daiichi Pharmaceuticals Co., Ltd., priority 1998, dated 2003).
